Laboratory results reported in PubChem BioAssay AID1963832 (Molecular Pharmacology Branch, DTP, NCI, 2024).

Tested on: 885724-159-R-J1-PDC complex spheroid viability
Test: Anticancer human tumor 885724-159-R-J1-PDC patient-derived pancreatic adenocarcinoma cell line growth inhibition [POLQ]
Conditions: for IC50: curve of first compound; for viability, T/C: stronger effect = lower value
Procedure, shortened: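 PDC + HUVEC + MSC complex spheroids; POLQ inhibitors ± partner drugs; top conc. at/near clinical Cmax, else 10 microM (SN-38 1 microM), half-log dilutions; 37 degrees C, 5% CO2.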
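Also: spheroids exposed to compounds for 7 days.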

`CC(=O)O[C@H]1C(=O)[C@@]2(C)[C@H]([C@H](OC(=O)c3ccccc3)[C@]3(O)C[C@H](OC(=O)[C@H](O)[C@@H](NC(=O)c4ccccc4)c4ccccc4)C(C)=C1C3(C)C)[C@]1(OC(C)=O)CO[C@@H]1C[C@@H]2O` + Cc1cccc(N(C)C(=O)C2C(O)CCN2c2nc(C)cc(C(F)(F)F)c2C#N)c1 showed an IC50 (second compound 0.0316 µM) greater than 3000 nM, an IC50 (second compound 0.1 µM) greater than 3000 nM and an IC50 (second compound 0.316 µM) greater than 3000 nM. It also gave an IC50 (second compound 1 µM) greater than 3000 nM, an IC50 (second compound 3.16 µM) greater than 3000 nM and an IC50 (second compound 10 µM) greater than 3000 nM. For the same compound, the viability, T/C (second compound 0.0316 µM, first compound 0.00949 µM) was 76.7%, the viability, T/C (second compound 0.0316 µM, first compound 0.03 µM) was 57.6% and the viability, T/C (second compound 0.0316 µM, first compound 0.0949 µM) was 58.8%. It also gave a viability, T/C (second compound 0.0316 µM, first compound 0.3 µM) of 62.2%, a viability, T/C (second compound 0.0316 µM, first compound 0.949 µM) of 70.6% and a viability, T/C (second compound 0.0316 µM, first compound 3 µM) of 61%. For the same compound, the viability, T/C (second compound 0.1 µM, first compound 0.00949 µM) was 75.1%, the viability, T/C (second compound 0.1 µM, first compound 0.03 µM) was 59.4% and the viability, T/C (second compound 0.1 µM, first compound 0.0949 µM) was 59.8%. The viability, T/C (second compound 0.1 µM, first compound 0.3 µM) was 70.4%, the viability, T/C (second compound 0.1 µM, first compound 0.949 µM) was 67.3% and the viability, T/C (second compound 0.1 µM, first compound 3 µM) was 70.6%. For the same compound, the viability, T/C (second compound 0.316 µM, first compound 0.00949 µM) was 67.6%, the viability, T/C (second compound 0.316 µM, first compound 0.03 µM) was 59.6% and the viability, T/C (second compound 0.316 µM, first compound 0.0949 µM) was 63%. The viability, T/C (second compound 0.316 µM, first compound 0.3 µM) was 63.6%, the viability, T/C (second compound 0.316 µM, first compound 0.949 µM) was 75.4% and the viability, T/C (second compound 0.316 µM, first compound 3 µM) was 69.7%. It also gave a viability, T/C (second compound 1 µM, first compound 0.00949 µM) of 68.2%, a viability, T/C (second compound 1 µM, first compound 0.03 µM) of 66.3% and a viability, T/C (second compound 1 µM, first compound 0.0949 µM) of 62.8%. The viability, T/C (second compound 1 µM, first compound 0.3 µM) was 67.2%, the viability, T/C (second compound 1 µM, first compound 0.949 µM) was 69.1% and the viability, T/C (second compound 1 µM, first compound 3 µM) was 68.9%. The viability, T/C (second compound 3.16 µM, first compound 0.00949 µM) was 62.5%, the viability, T/C (second compound 3.16 µM, first compound 0.03 µM) was 55.1% and the viability, T/C (second compound 3.16 µM, first compound 0.0949 µM) was 59.4%. It also gave a viability, T/C (second compound 3.16 µM, first compound 0.3 µM) of 63.8%, a viability, T/C (second compound 3.16 µM, first compound 0.949 µM) of 67.6% and a viability, T/C (second compound 3.16 µM, first compound 3 µM) of 64.5%. It also gave a viability, T/C (second compound 10 µM, first compound 0.00949 µM) of 59.1%, a viability, T/C (second compound 10 µM, first compound 0.03 µM) of 61.1% and a viability, T/C (second compound 10 µM, first compound 0.0949 µM) of 61%. The viability, T/C (second compound 10 µM, first compound 0.3 µM) was 66%, the viability, T/C (second compound 10 µM, first compound 0.949 µM) was 62.7% and the viability, T/C (second compound 10 µM, first compound 3 µM) was 72%.

Work on `CC[C@@]1(O)C(=O)OCc2c1cc1n(c2=O)Cc2cc3c(CN(C)C)c(O)ccc3nc2-1` + Cc1cccc(N(C)C(=O)C2C(O)CCN2c2nc(C)cc(C(F)(F)F)c2C#N)c1 yielded an IC50 (second compound 0.0316 µM) greater than 100 nM, an IC50 (second compound 0.1 µM) greater than 100 nM and an IC50 (second compound 0.316 µM) greater than 100 nM. The IC50 (second compound 1 µM) was greater than 100 nM, the IC50 (second compound 3.16 µM) was greater than 100 nM and the IC50 (second compound 10 µM) was greater than 100 nM. For the same compound, the viability, T/C (second compound 0.0316 µM, first compound 0.000316 µM) was 112%, the viability, T/C (second compound 0.0316 µM, first compound 0.001 µM) was 103% and the viability, T/C (second compound 0.0316 µM, first compound 0.00316 µM) was 98%. The viability, T/C (second compound 0.0316 µM, first compound 0.01 µM) was 93.5%, the viability, T/C (second compound 0.0316 µM, first compound 0.0316 µM) was 72% and the viability, T/C (second compound 0.0316 µM, first compound 0.1 µM) was 65.5%. The viability, T/C (second compound 0.1 µM, first compound 0.000316 µM) was 111%, the viability, T/C (second compound 0.1 µM, first compound 0.001 µM) was 112% and the viability, T/C (second compound 0.1 µM, first compound 0.00316 µM) was 93.4%. The viability, T/C (second compound 0.1 µM, first compound 0.01 µM) was 93%, the viability, T/C (second compound 0.1 µM, first compound 0.0316 µM) was 73.2% and the viability, T/C (second compound 0.1 µM, first compound 0.1 µM) was 68.1%. For the same compound, the viability, T/C (second compound 0.316 µM, first compound 0.000316 µM) was 117%, the viability, T/C (second compound 0.316 µM, first compound 0.001 µM) was 104% and the viability, T/C (second compound 0.316 µM, first compound 0.00316 µM) was 103%. It also gave a viability, T/C (second compound 0.316 µM, first compound 0.01 µM) of 100%, a viability, T/C (second compound 0.316 µM, first compound 0.0316 µM) of 74.9% and a viability, T/C (second compound 0.316 µM, first compound 0.1 µM) of 62.4%. For the same compound, the viability, T/C (second compound 1 µM, first compound 0.000316 µM) was 100%, the viability, T/C (second compound 1 µM, first compound 0.001 µM) was 98% and the viability, T/C (second compound 1 µM, first compound 0.00316 µM) was 99.5%. The viability, T/C (second compound 1 µM, first compound 0.01 µM) was 94.2%, the viability, T/C (second compound 1 µM, first compound 0.0316 µM) was 81.8% and the viability, T/C (second compound 1 µM, first compound 0.1 µM) was 61.7%. It also gave a viability, T/C (second compound 3.16 µM, first compound 0.000316 µM) of 108%, a viability, T/C (second compound 3.16 µM, first compound 0.001 µM) of 99.3% and a viability, T/C (second compound 3.16 µM, first compound 0.00316 µM) of 98.8%. It also gave a viability, T/C (second compound 3.16 µM, first compound 0.01 µM) of 101%, a viability, T/C (second compound 3.16 µM, first compound 0.0316 µM) of 71.6% and a viability, T/C (second compound 3.16 µM, first compound 0.1 µM) of 55.3%. The viability, T/C (second compound 10 µM, first compound 0.000316 µM) was 99.9%, the viability, T/C (second compound 10 µM, first compound 0.001 µM) was 95.3% and the viability, T/C (second compound 10 µM, first compound 0.00316 µM) was 90.5%. The viability, T/C (second compound 10 µM, first compound 0.01 µM) was 87.6%, the viability, T/C (second compound 10 µM, first compound 0.0316 µM) was 83% and the viability, T/C (second compound 10 µM, first compound 0.1 µM) was 63.6%.
